Experimental data from US6699989B1, “Antiviral and antimicrobial guanidine or biguanidine derivatives” (priority 2000, dated 2004).
≈ marks a conversion by molar mass, not a printed value. Where two headings read alike, the source gives them in different places.

Legend:
[1] = tested on: CEM-SS cells; assay type: cell-based; settings: CEM-SS
[2] = tested on: HIV-1; settings: CEM-SS, HIV1 RF
Procedure: This is a cytoprotection assay that uses the T-lymphoblastoid tumor cell line CEM-SS and laboratory adapted strains of HIV-1. Upon infection with HIV, the CEM-SS cells form syncytia and eventually die, producing large amounts of progeny virus over the course of 4-6 days at the standard multiplicity of infection (0.01). The antiviral assay measures the ability of a given compound to inhibit the HIV-induced cell killing. […] The activity of the compound is evaluated by measuring cell viability at 6 days post-infection and comparing the viability to that obtained in cell control (cells only), virus control (cells and virus only) and toxicity control (cells and compound only) wells.
Efficacy of the compound in cell culture is measured by increased cell viability in CEM-SS assays or reduction in virus production in PBMC assays. The data obtained yields a dose response curve which can be evaluated to determine doses which yield 25%, 50% and 95% protection from HIV-induced cell killing or virus production. […] These concentrations are reported as the TC25, TC50 and TC95 values. The ratio of toxicity to efficacy constitutes the therapeutic index TC50/IC50.
CEM-SS cells assay measures the ability of the compound to inhibit HIV induced cell killing. The cells are stained at 6 days post-infection with the tetrazolium dye XTT which is converted to a colored formazan product by the mitochondria of viable cells. Protection from cell killing afforded by the test compound is measured by comparison to both cell controls and virus controls. Cell killing in this system is directly related to the amount of virus produced by the infected cells and XTT-formazan production is proportional to the number of viable cells in each well. Toxicity of the compound to the target cells is measured in parallel.
CEM-SS cells (or other established human cell line used in these experiments) were passaged in T-150 flasks for use in the assay. On the day preceding the assay, the cells were split 1:2 to assure they would be in an exponential growth phase at time of infection. On the day of assay the cells were washed twice with tissue culture medium and resuspended in fresh tissue culture medium. Total cell and viability counting was performed using hemacytometer and trypan blue dye exclusion. Cell viability was greater than 95% for the cells to be utilized in the assay. The cells were pelleted and resuspended at 2.5×10^4 cells per ml in tissue culture medium. Cells were added to the drug-containing plates in a volume of 50 μl.
A pretitered aliquot of virus was removed from the freezer (−80° C.) and allowed to thaw slowly to room temperature in a biological safety cabinet. The virus was resuspended and diluted into tissue culture medium such that the amount of virus added to each well in a volume of 50 μl will be the amount determined to give complete cell killing at 6 days post-infection. In general the virus pools produced with the IIIB isolate of HIV required the addition of 5 μl of virus per well.
Each plate contained cell control wells (cells only), virus control wells (cells plus virus), drug toxicity control wells (cells plus drug only), drug colorimetric control wells (drug only) as well as experimental wells (drug plus cells plus virus).
After 6 days of incubation at 37° C. in a 5% CO2 incubator the test plates were analyzed by staining with the tetrazolium dye XTT. XTT-tetrazolium is metabolized by the mitochondrial enzymes of metabolically active cells to a soluble formazan product, allowing the rapid quantitative analysis of the inhibition of HIV-induced cell killing by anti-HIV test substances. On day 6 post-infection plates were removed from the incubator and observed.

[3] = tested on: Escherichia coli ATCC 11229; experiment: Microdilution broth MIC assay; assay type: cell-based; settings: ATCC11229, Ec, Mueller Hinton broth, about 17 hr
Procedure: (§1) Test organisms. The test organisms are listed in Table 5 along with their source. Prior to assay, overnight bacterial slant cultures were used to inoculate Mueller Hinton broth followed by incubation for 5-7 hr. Each culture was then standardized turbidimetrically to a viable count of about 10^6 colony forming units/ml and used to inoculate the mirotiter assay plates. The viable count after addition to the plates was about 5×10^5 CFU/ml.
(§2) Experimental design. The MIC of the test compounds for the bacterial strains was determined with a microdilution broth assay in 96 well microtiter plates. The test compounds were dissolved in DMSO and then diluted 10-fold in assay medium (Mueller Hinton broth) to obtain final concentrations of 0.128, 1.28, 12.8, and 128 μg/ml. A viability control containing DMSO, diluted in the same manner as the test compounds, was used to confirm that the DMSO was not inhibitory by itself. Trimethoprim (TMP) was used as a positive drug control. The assay plates were incubated at 37° C. for about 17 hr and each assay well observed visually for growth. The MIC was determined at the lowest concentration of drug which inhibited growth. [drawing 32]

[4] = tested on: Klebsiella pneumoniae ATCC 4352; experiment: Microdilution broth MIC assay; assay type: cell-based; settings: ATCC4352, Kp, Mueller Hinton broth, about 17 hr
Procedure: as §1, §2

[5] = tested on: Proteus mirabilis ATCC 9921; experiment: Microdilution broth MIC assay; assay type: cell-based; settings: ATCC9921, Pm, Mueller Hinton broth, about 17 hr
Procedure: as §1, §2

[6] = tested on: Pseudomonas aeruginosa ATCC 15442; experiment: Microdilution broth MIC assay; assay type: cell-based; settings: ATCC15442, Pa, Mueller Hinton broth, about 17 hr
Procedure: as §1, §2

[7] = tested on: Staphylococcus aureus ATCC 6538; experiment: Microdilution broth MIC assay; assay type: cell-based; settings: ATCC6538, Sa, Mueller Hinton broth, about 17 hr
Procedure: as §1, §2

[8] = tested on: Staphylococcus epidermidis ATCC 35984; experiment: Microdilution broth MIC assay; assay type: cell-based; settings: ATCC35984, Se, Mueller Hinton broth, about 17 hr
Procedure: as §1, §2

[9] = tested on: Streptococcus pneumoniae ATCC 6303; experiment: Microdilution broth MIC assay; assay type: cell-based; settings: ATCC6303, Sp, Mueller Hinton broth, about 17 hr
Procedure: as §1, §2

[10] = tested on: HIV-1; experiment: PBMC assay, virus production by reverse transcriptase activity; assay type: cell-based; settings: ROJO in PBMC
Text: Method 2: PBMC Assay Method (Peripheral Blood Mononuclear cell)—Description
This assay addresses the issue of providing a rationale for further evaluation of the compound by providing evidence of in vitro anti-HIV activity against a low passage clinical strain of HIV-1. These fresh human peripheral blood mononuclear cell assays use fresh human cells obtained from the American Red Cross from uninfected, normal human donors. Mononuclear cells from these blood samples are isolated by centrifugation and infected with low passage clinical strains of HIV-1 which have been obtained by culture of blood cells from HIV-infected patients with uninfected PBMCs. Since the PBMCs are not killed by HIV infection, endpoint quantification is performed by measurement of virus production in each well by reverse transcriptase assay or p24 ELISA. These assays provide evidence that the test compounds will have efficacy against viruses, which will likely be encountered in patients without genetic changes, introduced by passage in cell culture.
Thus, PBMCs assay measures the amount of virus released from the infected cells into the tissue culture supernatant. The activity of the test compound is measured by its ability to reduce the level of virus production relative to the virus controls (cells+virus with no added compound). In PBMC culture we use reverse transcriptase activity in the supernatant to quantify the amount of virus production from the infected cells. Endpoint quantification is performed at 6 days post-infection.
Fresh human peripheral blood lymphocytes (PBL) are isolated from voluntary Red Cross donors, seronegative for HIV and HBV. Leukophoresed blood is diluted 1:1 with Dulbecco's phosphate buffered saline (PBS), layered over 14 mL of Ficoll-Hypaque density gradient in a 50 mL centrifuge tube. Tubes are then centrifuged for 30 minutes at 600×g. Banded PBLs are gently aspirated from the resulting interface and subsequently washed 2× with PBS by low speed centrifugation. […] After incubation, PBLs are centrifuged and reset in RPMI 1640 with 15% FBS, 2 mM L-glutamine, 100 U/mL. penicillin, 100 ug/mL streptomycin, 10 ug/mL gentamycin, and 20 U/mL recombinant human IL-2. PBLs are maintained in this medium at a concentration of 1-2×10E6/mL with bi-weekly medium changes, until use in assay protocol. For the PBL assay, PHA-P stimulated cells from at least two normal donors are pooled, set in fresh medium at 2×10E6/mL and plated in the interior wells of a 96 well round bottom microplate at 50 μL/well. Test drug dilutions are prepared at a 2× concentration in microtiter tubes and 100 μL of each concentration is placed in appropriate wells in a standard format. 50 μL of a predetermined dilution of virus stock is placed in each test well. Wells with cells and virus alone are used for virus control. Separate plates are identically set without virus for drug cytotoxicity studies using an XTT assay system.
In the standard PBL assay (MOI: 0.2), the assay was ended on day 7 following collection of cell free supernatant samples for reverse transcriptase activity assay. In the low MOI PBL assay (MOI: 0.02), supernatant samples were collected on day 6, day 11, and day 14 post-infection and analyzed for RT activity.

[11] = tested on: PBMCs; experiment: Toxicity to PBMC, XTT; assay type: cell-based, human

Compound: Nc1ccn([C@H]2CC[C@@H](CO)O2)c(=O)n1 [DDC, di-deoxycytosine, reference compound]
- % CELL VIABILITY ([1]; 0.00003 μM): 100%
- CYTOTOXICITY TEST VALUES MEAN O.D. ([1]; 0.00003 μM): 1.496 O.D.
- % CELL VIABILITY ([1]; 0.0001 μM): 93%
- CYTOTOXICITY TEST VALUES MEAN O.D. ([1]; 0.0001 μM): 1.346 O.D.
- % CELL VIABILITY ([1]; 0.00032 μM): 99%
- CYTOTOXICITY TEST VALUES MEAN O.D. ([1]; 0.00032 μM): 1.428 O.D.
- % CELL VIABILITY ([1]; 0.001 μM): 100%
- CYTOTOXICITY TEST VALUES MEAN O.D. ([1]; 0.001 μM): 1.476 O.D.
- % CELL VIABILITY ([1]; 0.0032 μM): 100%
- CYTOTOXICITY TEST VALUES MEAN O.D. ([1]; 0.0032 μM): 1.450 O.D.
- % CELL VIABILITY ([1]; 0.01 μM): 100%
- CYTOTOXICITY TEST VALUES MEAN O.D. ([1]; 0.01 μM): 1.550 O.D.
- % CELL VIABILITY ([1]; 0.032 μM): 100%
- CYTOTOXICITY TEST VALUES MEAN O.D. ([1]; 0.032 μM): 1.658 O.D.
- % CELL VIABILITY ([1]; 0.1 μM): 96%
- CYTOTOXICITY TEST VALUES MEAN O.D. ([1]; 0.1 μM): 1.391 O.D.
- % CELL VIABILITY ([1]; 0.32 μM): 97%
- CYTOTOXICITY TEST VALUES MEAN O.D. ([1]; 0.32 μM): 1.400 O.D.
- % CELL VIABILITY ([1]; 1 μM): 100%
- CYTOTOXICITY TEST VALUES MEAN O.D. ([1]; 1 μM): 1.469 O.D.
- % CELL VIABILITY ([1]; 3.2 μM): 100%
- CYTOTOXICITY TEST VALUES MEAN O.D. ([1]; 3.2 μM): 1.826 O.D.
- % CELL VIABILITY ([1]; 10 μM): 100%
- CYTOTOXICITY TEST VALUES MEAN O.D. ([1]; 10 μM): 2.064 O.D.
- TC 25% ([1]; XTT): >10.00 CM
- TC 50% ([1]; XTT): >10.00 CM
- TC 95% ([1]; XTT): >10.00 CM
- % RED. IN VIRAL CPE ([2]; 0.00003 μM): 1%
- ANTIVIRAL TEST VALUES MEAN O.D. ([2]; 0.00003 μM): 0.014 O.D.
- % RED. IN VIRAL CPE ([2]; 0.0001 μM): 5%
- ANTIVIRAL TEST VALUES MEAN O.D. ([2]; 0.0001 μM): 0.062 O.D.
- % RED. IN VIRAL CPE ([2]; 0.00032 μM): 6%
- ANTIVIRAL TEST VALUES MEAN O.D. ([2]; 0.00032 μM): 0.080 O.D.
- % RED. IN VIRAL CPE ([2]; 0.001 μM): 4%
- ANTIVIRAL TEST VALUES MEAN O.D. ([2]; 0.001 μM): 0.057 O.D.
- % RED. IN VIRAL CPE ([2]; 0.0032 μM): 8%
- ANTIVIRAL TEST VALUES MEAN O.D. ([2]; 0.0032 μM): 0.109 O.D.
- % RED. IN VIRAL CPE ([2]; 0.01 μM): 9%
- ANTIVIRAL TEST VALUES MEAN O.D. ([2]; 0.01 μM): 0.119 O.D.
- % RED. IN VIRAL CPE ([2]; 0.032 μM): 75%
- ANTIVIRAL TEST VALUES MEAN O.D. ([2]; 0.032 μM): 1.019 O.D.
- % RED. IN VIRAL CPE ([2]; 0.1 μM): 81%
- ANTIVIRAL TEST VALUES MEAN O.D. ([2]; 0.1 μM): 1.099 O.D.
- % RED. IN VIRAL CPE ([2]; 0.32 μM): 92%
- ANTIVIRAL TEST VALUES MEAN O.D. ([2]; 0.32 μM): 1.246 O.D.
- % RED. IN VIRAL CPE ([2]; 1 μM): 86%
- ANTIVIRAL TEST VALUES MEAN O.D. ([2]; 1 μM): 1.166 O.D.
- % RED. IN VIRAL CPE ([2]; 3.2 μM): 100%
- ANTIVIRAL TEST VALUES MEAN O.D. ([2]; 3.2 μM): 1.754 O.D.
- % RED. IN VIRAL CPE ([2]; 10 μM): 100%
- ANTIVIRAL TEST VALUES MEAN O.D. ([2]; 10 μM): 1.687 O.D.
- IC 25% [2]: 0.01 CM
- IC 95% [2]: 2.11 CM

Compound: COc1cc(Cc2cnc(N)nc2N)cc(OC)c1OC [TMP, Trimethoprim, reference compound]
- MIC [3]: 0.064 to 0.64 µg/mL (≈ 0.22 to 2.2 µM)
- MIC [4]: 0.064 to 0.64 µg/mL (≈ 0.22 to 2.2 µM)
- MIC [5]: 0.64 to 6.4 µg/mL (≈ 2.2 to 22 µM)
- MIC [6]: > 64 µg/mL
- MIC [7]: 0.064 to 0.64 µg/mL (≈ 0.22 to 2.2 µM)
- MIC [8]: > 64 µg/mL
- MIC [9]: 0.64 to 6.4 µg/mL (≈ 2.2 to 22 µM)

Compound: Cc1cn([C@H]2C[C@H](N=[N+]=[N-])[C@@H](CO)O2)c(=O)[nH]c1=O [AZT, reference compound]
- RT ACTIVITY % VC ([10]; 0.0013 μM): 104.6%
- RT ACTIVITY MEAN ([10]; 0.0013 μM): 7531.7 cpm
- RT ACTIVITY % VC ([10]; 0.013 μM): 77.3%
- RT ACTIVITY MEAN ([10]; 0.013 μM): 5566.3 cpm
- RT ACTIVITY % VC ([10]; 0.04 μM): 81.7%
- RT ACTIVITY MEAN ([10]; 0.04 μM): 5880.0 cpm
- RT ACTIVITY % VC ([10]; 0.13 μM): 32.3%
- RT ACTIVITY MEAN ([10]; 0.13 μM): 2397.0 cpm
- RT ACTIVITY % VC ([10]; 0.4 μM): 3.8%
- RT ACTIVITY MEAN ([10]; 0.4 μM): 274.0 cpm
- RT ACTIVITY % VC ([10]; 1.3 μM): 8.8%
- RT ACTIVITY MEAN ([10]; 1.3 μM): 88.0 cpm
- RT ACTIVITY % VC ([10]; 4 μM): 0.7%
- RT ACTIVITY MEAN ([10]; 4 μM): 48.3 cpm
- IC50 ([10]; RT activity, read-out: IC50): 0.1 µM
- CC50 [11]: > 4 µM
